Measurements published in article PMC8329922, “Credentialing and Pharmacologically Targeting PTP4A3 Phosphatase as a Molecular Target for Ovarian Cancer” (Biomolecules, 2021).

Legend:
OVCAR4 = assay: Cytotoxicity, 3D spheroids, CellTiter Glo 3D; format: cell-based; settings: Homo sapiens, OVCAR-4, 48 h exposure, read-out: EC50 (μM ± SEM) OVCAR4
V581 = assay: Cytotoxicity, 3D spheroids, CellTiter Glo 3D; format: cell-based; settings: Homo sapiens, 48 h exposure, patient-derived cell line, read-out: EC50 (μM ± SEM) V581
Kuramochi = assay: Cytotoxicity, 3D spheroids, CellTiter Glo 3D; format: cell-based; settings: Homo sapiens, 48 h exposure, read-out: EC50 (μM ± SEM) Kuramochi
COV362-47R = assay: Cytotoxicity, 3D spheroids, CellTiter Glo 3D; format: cell-based; settings: Homo sapiens, 48 h exposure, carboplatin resistant line, read-out: EC50 (μM ± SEM) COV362-47R
OVSAHO = assay: Cytotoxicity, 3D spheroids, CellTiter Glo 3D; format: cell-based; settings: Homo sapiens, 48 h exposure, read-out: EC50 (μM ± SEM) OVSAHO
COV362 = assay: Cytotoxicity, 3D spheroids, CellTiter Glo 3D; format: cell-based; settings: Homo sapiens, 48 h exposure, read-out: EC50 (μM ± SEM) COV362
COV362 parent line = assay: Viability assay with 3-(4,5-dimethylthiazol-2-yl)-2,5-diphenyltetrazolium bromide; format: cell-based, human; settings: MTT viability assay, read-out: EC50 (concentration that caused a 50% cytotoxicity)
COV362-47R cells = assay: as above; format: cell-based, human; settings: MTT viability assay, read-out: EC50 (concentration that caused a 50% cytotoxicity)
recombinant human PTP4A3 = target: T1, recombinant human PTP4A3 (Homo sapiens, UniProt O75365); assay: In vitro phosphatase inhibition (DiFMUP substrate); format: biochemical; settings: Mean ± SEM, N = 3, * N = 6, ** N = 8; DiFMUP 12 μM, 25 °C, 30 min; read-out: in vitro IC50 against recombinant human PTP4A3
T1 construct: The cDNA for the full-length ptp4a3 was obtained from OriGene (SC308739); His6 (N); host or cells: E. coli BL21 (DE3)
T1 sequence (O75365 whole entry): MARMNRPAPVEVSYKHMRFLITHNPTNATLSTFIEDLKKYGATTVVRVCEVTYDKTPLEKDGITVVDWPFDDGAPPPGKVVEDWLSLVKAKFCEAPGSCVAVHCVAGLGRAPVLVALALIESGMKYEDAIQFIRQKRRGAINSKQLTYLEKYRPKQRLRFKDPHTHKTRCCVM

Row | Compound | EC50 (OVCAR4) | EC50 (V581) | EC50 (Kuramochi) | EC50 (COV362-47R) | EC50 (OVSAHO) | EC50 (COV362) | EC50 (COV362 parent line) | EC50 (COV362-47R cells) | IC50 (recombinant human PTP4A3)
1 | CN1C(=O)C(=N)c2sc(-c3ccccc3)cc2C1=O [NRT-870-59] | > 50 µM | > 50 µM | 30.6 µM | > 50 µM | > 50 µM | > 50 µM | – | – | –
2 | C[C@]1(c2nc3c(C(N)=O)cccc3[nH]2)CCCN1 [Veliparib, reference compound] | > 50 µM | > 50 µM | > 50 µM | > 50 µM | > 50 µM | > 50 µM | – | – | –
3 | N.N.O=C([O-])C1(C(=O)[O-])CCC1.[Pt+2] [carboplatin] | – | – | – | – | – | – | ~20 µM | ~200 µM | –
4 | Cc1cc2c(s1)C(=N)C(=O)NC2=O [EJR-912-57] | > 25 µM | > 50 µM | > 50 µM | > 50 µM | > 50 µM | 28.3 ± 3.1 µM | – | – | 0.0897 ± 0.014 µM
5 | O=C(c1cc(Cc2n[nH]c(=O)c3ccccc23)ccc1F)N1CCN(C(=O)C2CC2)CC1 [Olaparib] | > 50 µM | > 50 µM | > 50 µM | > 50 µM | > 50 µM | > 50 µM | – | – | –
6 | N=C1C(=O)NC(=O)c2c(-c3ccccc3)csc21 [EJR-912-41] | 26.9 ± 3.9 µM | > 50 µM | 7 µM | > 50 µM | 38.7 ± 1.7 µM | 31.6 ± 6.8 µM | – | – | 0.0637 ± 0.0073 µM
7 | CC[C@@]1(O)C(=O)OCc2c1cc1n(c2=O)Cc2cc3c(CN(C)C)c(O)ccc3nc2-1 [Topotecan, reference compound] | 2.5 ± 0.8 µM | – | – | 25.3 ± 9.8 µM | 2.5 ± 1.1 µM | 2.5 ± 0.7 µM | – | – | –
8 | Cc1cc2c(s1)C(=O)C(=O)NC2=O [EJR-912-50] | > 50 µM | > 50 µM | > 50 µM | > 50 µM | > 50 µM | > 50 µM | – | – | 0.0606 ± 0.006 µM
9 | O=C1NC(=O)c2c(-c3ccccc3)csc2C1=O [EJR-912-43] | > 50 µM | > 50 µM | > 50 µM | > 50 µM | > 50 µM | > 50 µM | – | – | 0.0537 ± 0.0124 µM
10 | CC(=O)O[C@H]1C(=O)[C@@]2(C)[C@H]([C@H](OC(=O)c3ccccc3)[C@]3(O)C[C@H](OC(=O)[C@H](O)[C@@H](NC(=O)c4ccccc4)c4ccccc4)C(C)=C1C3(C)C)[C@]1(OC(C)=O)CO[C@@H]1C[C@@H]2O [Paclitaxel, reference compound] | > 5 µM | > 5 µM | > 5 µM | > 5 µM | > 5 µM | > 5 µM | – | – | –
